This is an account of results in ChEMBL document CHEMBL1201862, “PubChem BioAssay data set” (2004).

The structures appear in SMILES notation.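 Cultured in 96-well plates, cells were exposed to test compound for 48 hours across five concentrations. Abbreviation: GI50, concentration required for 50% inhibition of growth.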 Active and inactive are the calls of the source. Rule as the data show it: active = GI50 up to about 1.1 µM and inactive = higher. A value given as a limit tells only on which side of the number the result lay.

Some test systems named below: NCI/ADR-RES; SF-539; NCI-H522; SK-MEL-5; RXF 393; CCRF-CEM; MDA-N; A498; MCF7; OVCAR-5; HOP-92; SK-OV-3; HCT-15; PC-3; SF-268; SNB-19; MOLT-4; OVCAR-4; UACC-62; OVCAR-8.
Common to all, as to assay: DTP human tumour cell line panel, 48 h

One may read the GI50 as the concentration at which growth is held to half of that of the control.

Consider `O=[N+]([O-])c1cc([As](Br)c2ccc(O)c([N+](=O)[O-])c2)ccc1O`, for which the GI50 in the assay with NCI/ADR-RES is 2.77 µM (inactive); in the assay on SF-539, 1.77 µM (inactive); with NCI-H522, 0.145 µM (active); in the assay on SK-MEL-5 it was 1.49 µM (inactive); with RXF 393 it was 1.56 µM (inactive); in the assay on CCRF-CEM, 0.167 µM (active). Further, the GI50 in the assay on MDA-N is 1.53 µM (inactive); in the assay on A498, 1.95 µM (inactive); with MCF7 it was 1.27 µM (inactive); in the assay with OVCAR-5, 2.05 µM (inactive); in the assay on HOP-92, 1.38 µM (inactive); in the assay with SK-OV-3, 3.39 µM (inactive). Moreover, the GI50 with HCT-15 was 1.99 µM; in the assay with PC-3 it was 1.95 µM (inactive); in the assay on SF-268 it was 2.14 µM (inactive); in the assay with SNB-19, 1.94 µM (inactive); in the assay with MOLT-4, 0.259 µM (active); in the assay on OVCAR-4 it was 1.66 µM (inactive). Besides, the figures for the GI50 in the assay on UACC-62 and in the assay with OVCAR-8 were 1.47 µM (inactive) and 1.79 µM (inactive), respectively.
Consider `CS(=O)(=O)OCCN(CCOS(C)(=O)=O)c1ccc(C=O)cc1`, for which the GI50 in the assay on NCI/ADR-RES was 7.1 µM (inactive); with SF-539, 2.18 µM (inactive); in the assay on NCI-H522, 0.195 µM (active); in the assay with SK-MEL-5, 6.27 µM (inactive); with RXF 393, 0.432 µM (active); in the assay with CCRF-CEM, 0.897 µM (active). For the same compound, the GI50 in the assay with MDA-N is 8.95 µM (inactive); with A498, 1.74 µM (inactive); in the assay with MCF7, 4.7 µM (inactive); in the assay on OVCAR-5, 3.5 µM (inactive); with HOP-92 it was 12.5 µM (inactive); in the assay with SK-OV-3 it was 1.14 µM (inactive). In addition, the GI50 was 9.84 µM in the assay on HCT-15; 19.4 µM (inactive) in the assay with PC-3; 2.95 µM (inactive) in the assay on SF-268; 4.22 µM (inactive) with SNB-19; 0.233 µM (active) in the assay with MOLT-4; 13 µM (inactive) with OVCAR-4. Further, the GI50 in the assay with UACC-62 was 1.27 µM (inactive); in the assay with OVCAR-8, 7.35 µM (inactive).
`c1cc2nsnc2c2c[nH]cc12`: the GI50 in the assay with NCI/ADR-RES was 61.5 µM (inactive); in the assay with SF-539 it was > 100 µM (inactive); in the assay with NCI-H522 it was 56.5 µM (inactive); in the assay with SK-MEL-5 it was 61.4 µM (inactive); in the assay with RXF 393 it was 52.7 µM (inactive); in the assay on CCRF-CEM, > 100 µM (inactive). The GI50 was 71.4 µM (inactive) in the assay on MDA-N; 24.7 µM (inactive) with A498; 34.7 µM (inactive) with MCF7; 47.4 µM (inactive) in the assay on OVCAR-5; 28.1 µM (inactive) in the assay on HOP-92; > 100 µM (inactive) in the assay with SK-OV-3. For the same compound, the GI50 in the assay with HCT-15 is 99.5 µM; with PC-3 it was 45.1 µM (inactive); with SF-268, > 100 µM (inactive); in the assay with MOLT-4, 85.3 µM (inactive); with OVCAR-4, > 100 µM (inactive); in the assay with UACC-62, 42.9 µM (inactive). Also, the GI50 with OVCAR-8 was 34.2 µM (inactive).
In the case of `CC(=O)O[C@H]1C[C@H]2C(=S)Nc3ccccc3C(=S)N2C1`, the GI50 with NCI/ADR-RES, in the assay with NCI-H522, with SK-MEL-5, in the assay on RXF 393, in the assay on CCRF-CEM and in the assay on MDA-N was > 100 µM (inactive) throughout. Moreover, the GI50 in the assay on A498 is > 100 µM (inactive); with MCF7, > 100 µM (inactive); with OVCAR-5, > 100 µM (inactive); in the assay on HOP-92, > 100 µM (inactive); with SK-OV-3, > 100 µM (inactive); in the assay with HCT-15, more than 100 µM. The GI50 in the assay with PC-3, in the assay with SF-268, with SNB-19, in the assay on MOLT-4, in the assay with OVCAR-4 and in the assay with UACC-62 was > 100 µM (inactive) each time. Also, in the assay with OVCAR-8, the GI50 was > 100 µM (inactive).
For the compound `O=C1c2c[nH]nc2C(c2ccccc2)N1c1ccccc1` (stereo unspecified), the GI50 in the assay with NCI/ADR-RES, with SF-539, in the assay with NCI-H522, in the assay with SK-MEL-5, in the assay on RXF 393 and in the assay with CCRF-CEM was > 10 µM (inactive) throughout. Moreover, the GI50 in the assay with MDA-N, with A498, in the assay on MCF7, in the assay with OVCAR-5, in the assay with HOP-92 and in the assay on SK-OV-3 was > 10 µM (inactive) throughout. The GI50 was more than 10 µM in the assay on HCT-15; > 10 µM (inactive) in the assay with PC-3; > 10 µM (inactive) in the assay with SF-268; > 10 µM (inactive) in the assay on SNB-19; > 10 µM (inactive) in the assay with MOLT-4; > 10 µM (inactive) with OVCAR-4. Moreover, the GI50 in the assay on UACC-62 and in the assay on OVCAR-8 was > 10 µM (inactive) in each case.
`C[C@]12CC[C@H]3[C@@H](CCC4=CC(=O)CC[C@@]43C)[C@@H]1CC[C@@H]2OC(=O)c1cccc2c(=O)c3ccccc3[nH]c12`: the GI50 in the assay with NCI/ADR-RES was 64 µM (inactive); with SF-539 it was > 100 µM (inactive); in the assay on NCI-H522 it was > 100 µM (inactive); with SK-MEL-5 it was 37.4 µM (inactive); in the assay on RXF 393, 75.7 µM (inactive); with CCRF-CEM it was 58.1 µM (inactive). Besides, the GI50 in the assay with MDA-N was 42.1 µM (inactive); in the assay with A498 it was > 100 µM (inactive); in the assay with MCF7, > 100 µM (inactive); in the assay on OVCAR-5 it was > 100 µM (inactive); in the assay on HOP-92 it was 84.5 µM (inactive); in the assay on SK-OV-3 it was 58.5 µM (inactive). In addition, the concentration for 50% growth inhibition (GI50) in the assay with HCT-15 was 37.6 µM; in the assay with PC-3 it was 44.4 µM (inactive); in the assay on SF-268, 18.2 µM (inactive); with SNB-19 it was > 100 µM (inactive); with MOLT-4, 32.1 µM (inactive); in the assay with OVCAR-4 it was 54.7 µM (inactive). Moreover, the GI50 is 29.4 µM (inactive) in the assay on UACC-62 and > 100 µM (inactive) in the assay on OVCAR-8.
On to `Cn1c(-c2ccco2)ccc1-c1ccc(C=O)o1`, for which the GI50 in the assay on NCI/ADR-RES was 33 µM (inactive); in the assay with SF-539 it was 21.5 µM (inactive); in the assay with NCI-H522, > 100 µM (inactive); in the assay with SK-MEL-5, 64.1 µM (inactive); with RXF 393, > 100 µM (inactive); in the assay with CCRF-CEM, 27.5 µM (inactive). Besides, the GI50 was 35.7 µM (inactive) in the assay with MDA-N; 92.3 µM (inactive) in the assay with A498; 30.5 µM (inactive) in the assay with MCF7; > 100 µM (inactive) in the assay with OVCAR-5; 31 µM (inactive) in the assay with HOP-92; > 100 µM (inactive) in the assay with SK-OV-3. In addition, the GI50 in the assay with HCT-15 is 72.4 µM; in the assay on PC-3 it was > 100 µM (inactive); with SNB-19, > 100 µM (inactive); in the assay on MOLT-4, 23.3 µM (inactive); with OVCAR-4 it was 56.4 µM (inactive); in the assay with UACC-62, 60.3 µM (inactive). For the same compound, the GI50 in the assay on OVCAR-8 was 37.3 µM (inactive).
Consider `O=C1CNCCCN2CCN(CCCNCC(=O)Nc3ccc(cc3)S(=O)(=O)c3ccc(cc3)NC(=O)CNCCCN3CCN(CCCNCC(=O)Nc4ccc(cc4)S(=O)(=O)c4ccc(cc4)N1)CC3)CC2`, for which the GI50 in the assay with NCI/ADR-RES was 40.3 µM (inactive); in the assay with SF-539 it was 19.5 µM (inactive); with NCI-H522, 10.7 µM (inactive); with SK-MEL-5 it was 25.1 µM (inactive); with RXF 393, 28.6 µM (inactive); with CCRF-CEM, 1.57 µM (inactive). The GI50 with MDA-N is 19.3 µM (inactive); with A498, 20.7 µM (inactive); in the assay on MCF7, 46.1 µM (inactive); in the assay on OVCAR-5, 31.4 µM (inactive); with HOP-92, 28.1 µM (inactive); in the assay on SK-OV-3 it was > 100 µM (inactive). For the same compound, the concentration for 50% growth inhibition (GI50) is 21 µM with HCT-15; 42.3 µM (inactive) in the assay with PC-3; 22.9 µM (inactive) with SF-268; 52.2 µM (inactive) in the assay on SNB-19; 19.4 µM (inactive) in the assay with MOLT-4; > 47.9 µM (inactive) in the assay with OVCAR-4. Also, the GI50 in the assay with UACC-62 is 32.9 µM (inactive); in the assay with OVCAR-8, 24.8 µM (inactive).
As for `CC(=O)OC12c3ccccc3-c3ccccc3C1C(C(=O)O)C2(Cl)C(=O)O` (stereo unspecified), the GI50 in the assay on NCI/ADR-RES, with SF-539, in the assay on NCI-H522, with SK-MEL-5, in the assay with RXF 393 and in the assay on CCRF-CEM was > 10 µM (inactive) throughout. The GI50 in the assay with MDA-N, in the assay on A498, in the assay on MCF7, with OVCAR-5, in the assay on HOP-92 and in the assay with SK-OV-3 was > 10 µM (inactive) throughout. Also, the GI50 in the assay with HCT-15 was more than 10 µM; in the assay with PC-3, > 10 µM (inactive); in the assay with SF-268 it was > 10 µM (inactive); in the assay with SNB-19 it was > 10 µM (inactive); in the assay on MOLT-4, > 10 µM (inactive); with OVCAR-4, > 10 µM (inactive). Moreover, the GI50 in the assay with OVCAR-8 was > 10 µM (inactive).
Regarding `O=C(OCc1ccccc1[N+](=O)[O-])N1c2ccccc2[C@@]23O[C@]24CCC[C@H]3C#C/C=C\C#C[C@H]14`, the GI50 in the assay on NCI/ADR-RES is 31.3 µM (inactive); with SF-539, 9.95 µM (inactive); in the assay with NCI-H522 it was 78 µM (inactive); with SK-MEL-5, 12.4 µM (inactive); in the assay with RXF 393, > 100 µM (inactive); in the assay on CCRF-CEM it was 4.21 µM (inactive). The GI50 in the assay with MDA-N was > 100 µM (inactive); with A498, > 100 µM (inactive); in the assay on MCF7, 0.875 µM (active); in the assay on OVCAR-5 it was 66.7 µM (inactive); in the assay with HOP-92 it was 25.6 µM (inactive); in the assay on SK-OV-3 it was > 100 µM (inactive). For the same compound, the 50% growth inhibitory concentration (GI50) in the assay on HCT-15 was 17 µM; in the assay with PC-3, 14.8 µM (inactive); in the assay with SF-268 it was 75 µM (inactive); in the assay with SNB-19 it was > 100 µM (inactive); with MOLT-4, 1.46 µM (inactive); in the assay on OVCAR-4, > 100 µM (inactive). Besides, the figures for the GI50 in the assay on UACC-62 and in the assay with OVCAR-8 were 22.7 µM (inactive) and 49 µM (inactive), respectively.
